Where “and” joins values, the source holds several entries; their conditions need not be identical. Equal entries are not always repeated. Inconclusive results and toxic doses are left out.
Test system: L1210 leukemia ip in BDF1 mice, survival T/C
Assay: NCI In Vivo Anticancer Drug Screen. Data for tumor model L1210 Leukemia (intraperitoneal) in B6D2F1 (BDF1) mice
Details: endpoint: mean survival time, higher = longer survival
Method in brief: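 Tumor cells were implanted, animals were treated, and survival was followed. The result divides the treated measurement by the vehicle-control measurement.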

[1] = dose: 100.0 mg/kg/injection, schedule: Q01DX001 (ip), vehicle: saline with Tween-80
[2] = dose: 200.0 mg/kg/injection, schedule: Q01DX001 (ip), vehicle: saline with Tween-80
[3] = dose: 400.0 mg/kg/injection, schedule: Q01DX001 (ip), vehicle: saline with Tween-80
[4] = dose: 50.0 mg/kg/injection, schedule: Q01DX009 (ip), vehicle: Klucel (hydroxypropylcellulose) (HPC)
[5] = dose: 100.0 mg/kg/injection, schedule: Q01DX009 (ip), vehicle: Klucel (hydroxypropylcellulose) (HPC)
[6] = dose: 200.0 mg/kg/injection, schedule: Q01DX009 (ip), vehicle: Klucel (hydroxypropylcellulose) (HPC)
[7] = dose: 100.0 mg/kg/injection, schedule: Q01DX001 (ip), vehicle: saline
[8] = dose: 100.0 mg/kg/injection, schedule: Q01DX009 (ip), vehicle: saline with Tween-80
[9] = dose: 200.0 mg/kg/injection, schedule: Q01DX009 (ip), vehicle: saline with Tween-80
[10] = dose: 100.0 mg/kg/injection, schedule: Q04DX003 (ip), vehicle: Klucel (hydroxypropylcellulose) (HPC)
[11] = dose: 200.0 mg/kg/injection, schedule: Q04DX003 (ip), vehicle: Klucel (hydroxypropylcellulose) (HPC)

## CCC[CH2][Sn]1([CH2]CCC)[O]CC2(CCCCC2)C[O]1
dose: 2.5 mg/kg/injection, schedule: Q04DX002 (ip), vehicle: saline + alcohol
  T/C: 94 % of control and 102 % of control
dose: 5.0 mg/kg/injection, schedule: Q04DX002 (ip), vehicle: saline + alcohol
  T/C: 105 % of control and 118 % of control
dose: 10.0 mg/kg/injection, schedule: Q04DX002 (ip), vehicle: saline + alcohol
  T/C: 105 % of control
dose: 20.0 mg/kg/injection, schedule: Q04DX002 (ip), vehicle: saline + alcohol
  T/C: 93 % of control and 105 % of control

## CCC(/C=C\C(C)C1CCC2C3C=CC45CC4CCC5(C)C3CCC12C)C(C)C (centres undefined)
[1]
  T/C: 96 % of control
[2]
  T/C: 89 % of control
[3]
  T/C: 86 % of control

## CCOc1ccc(OCC)c(NC(=O)Nc2cc([N+](=O)[O-])ccc2OC)c1
[4]
  T/C: 114 % of control
[5]
  T/C: 93 % of control
[6]
  T/C: 96 % of control

## Cc1nc(N)[nH]c(=O)c1CCCNS(=O)(=O)c1ccc(N)cc1
dose: 50.0 mg/kg/injection, schedule: Q01DX001 (ip), vehicle: saline
  T/C: 100 % of control
[7]
  T/C: 97 % of control
dose: 200.0 mg/kg/injection, schedule: Q01DX001 (ip), vehicle: saline
  T/C: 100 % of control
dose: 400.0 mg/kg/injection, schedule: Q01DX001 (ip), vehicle: saline
  T/C: 94 % of control

## O=c1ccn(-c2ccccc2)c(=S)[nH]1
[1]
  T/C: 96 % of control
[8]
  T/C: 95 % of control
[2]
  T/C: 96 % of control
[9]
  T/C: 95 % of control
[3]
  T/C: 100 % of control

## Nc1nc2ncc(CNc3ccc(C(=O)NC(CCC(=O)O)C(=O)O)cc3)nc2c(=O)[nH]1 (centres undefined)
dose: 1.6 mg/kg/injection, schedule: Q01DX009 (ip), vehicle: saline with Tween-80
  T/C: 93 % of control and 98 % of control
dose: 3.2 mg/kg/injection, schedule: Q01DX009 (ip), vehicle: saline with Tween-80
  T/C: 101 % of control and 109 % of control
dose: 6.3 mg/kg/injection, schedule: Q01DX009 (ip), vehicle: saline with Tween-80
  T/C: 93 % of control and 94 % of control
dose: 6.95 mg/kg/injection, schedule: Q01DX Z (ip), vehicle: carboxymethylcellulose (CMC)
  T/C: 96 % of control
dose: 12.5 mg/kg/injection, schedule: Q01DX009 (ip), vehicle: saline with Tween-80
  T/C: 101 % of control and 102 % of control
dose: 12.5 mg/kg/injection, schedule: Q04DX002 (ip), vehicle: saline with Tween-80
  T/C: 97 % of control and 100 % of control
dose: 13.9 mg/kg/injection, schedule: Q01DX Z (ip), vehicle: carboxymethylcellulose (CMC)
  T/C: 103 % of control
dose: 25.0 mg/kg/injection, schedule: Q01DX009 (ip), vehicle: saline with Tween-80
  T/C: 93 % of control and 100 % of control
dose: 25.0 mg/kg/injection, schedule: Q04DX002 (ip), vehicle: saline with Tween-80
  T/C: 97 % of control and 91 % of control
dose: 27.8 mg/kg/injection, schedule: Q01DX Z (ip), vehicle: carboxymethylcellulose (CMC)
  T/C: 101 % of control
dose: 50.0 mg/kg/injection, schedule: Q01DX009 (ip), vehicle: saline with Tween-80
  T/C: 98 % of control and 111 % of control
dose: 50.0 mg/kg/injection, schedule: Q04DX002 (ip), vehicle: saline with Tween-80
  T/C: 99 % of control and 100 % of control
dose: 55.6 mg/kg/injection, schedule: Q01DX Z (ip), vehicle: carboxymethylcellulose (CMC)
  T/C: 97 % of control
dose: 100.0 mg/kg/injection, schedule: Q04DX002 (ip), vehicle: saline with Tween-80
  T/C: 99 % of control and 102 % of control
dose: 200.0 mg/kg/injection, schedule: Q04DX002 (ip), vehicle: saline with Tween-80
  T/C: 103 % of control

## O=C1NC(=O)c2cccc3cccc1c23
[1]
  T/C: 98 % of control
[2]
  T/C: 102 % of control
[3]
  T/C: 102 % of control

## CCN(CC)CCN(C)C(=O)C1C(c2ccccc2)C1c1ccccc1 (centres undefined)
dose: 25.0 mg/kg/injection, schedule: Q04DX002 (ip), vehicle: Klucel (hydroxypropylcellulose) (HPC)
  T/C: 93 % of control
dose: 50.0 mg/kg/injection, schedule: Q04DX002 (ip), vehicle: Klucel (hydroxypropylcellulose) (HPC)
  T/C: 105 % of control

## Nc1nc(N)c2cc(CCc3ccc(C(=O)NC(CCC(=O)O)C(=O)O)cc3)ccc2n1 (centres undefined)
dose: 39.0 micrograms/kg/injection, schedule: Q01DX009 (ip), vehicle: Klucel (hydroxypropylcellulose) (HPC)
  T/C: 111 % of control
dose: 78.0 micrograms/kg/injection, schedule: Q01DX009 (ip), vehicle: Klucel (hydroxypropylcellulose) (HPC)
  T/C: 117 % of control
dose: 156.0 micrograms/kg/injection, schedule: Q01DX009 (ip), vehicle: Klucel (hydroxypropylcellulose) (HPC)
  T/C: 117 % of control
dose: 625.0 micrograms/kg/injection, schedule: Q01DX009 (ip), vehicle: Klucel (hydroxypropylcellulose) (HPC)
  T/C: 170 % of control

## CN(C)C1CCC(Nc2nc(Nc3cc(Cl)cc(Cl)c3)nc3ccccc23)CC1 (centres undefined)
[1]
  T/C: 95 % of control

## CNS(=O)(=O)c1ccc(NC(=O)C(Cl)Cl)cc1
dose: 100.0 mg/kg/injection, schedule: Q01DX001 (ip), vehicle: other
  T/C: 101 % of control
[8]
  T/C: 95 % of control
dose: 200.0 mg/kg/injection, schedule: Q01DX001 (ip), vehicle: other
  T/C: 103 % of control
[9]
  T/C: 106 % of control
dose: 400.0 mg/kg/injection, schedule: Q01DX001 (ip), vehicle: other
  T/C: 101 % of control
dose: 400.0 mg/kg/injection, schedule: Q01DX009 (ip), vehicle: saline with Tween-80
  T/C: 102 % of control

## CCCCN(Cl)CCCC
dose: 100.0 mg/kg/injection, schedule: Q04DX002 (ip), vehicle: saline + alcohol
  T/C: 101 % of control

## Cc1cc(=O)[nH]c(N/N=C2/CCCCC2C)n1 (centres undefined)
[4]
  T/C: 100 % of control
[5]
  T/C: 95 % of control
[10]
  T/C: 100 % of control
[6]
  T/C: 100 % of control
[11]
  T/C: 97 % of control

## O=C(O)c1cccnc1C(=O)O.[Cu+2]
dose: 3.12 mg/kg/injection, schedule: Q01DX009 (ip), vehicle: Klucel (hydroxypropylcellulose) (HPC)
  T/C: 107 % of control
dose: 6.25 mg/kg/injection, schedule: Q01DX009 (ip), vehicle: Klucel (hydroxypropylcellulose) (HPC)
  T/C: 94 % of control
dose: 6.25 mg/kg/injection, schedule: Q04DX003 (ip), vehicle: Klucel (hydroxypropylcellulose) (HPC)
  T/C: 94 % of control and 95 % of control
dose: 12.5 mg/kg/injection, schedule: Q01DX001 (ip), vehicle: other
  T/C: 108 % of control
dose: 12.5 mg/kg/injection, schedule: Q01DX009 (ip), vehicle: Klucel (hydroxypropylcellulose) (HPC)
  T/C: 92 % of control
dose: 12.5 mg/kg/injection, schedule: Q04DX003 (ip), vehicle: Klucel (hydroxypropylcellulose) (HPC)
  T/C: 101 % of control and 97 % of control
dose: 25.0 mg/kg/injection, schedule: Q01DX001 (ip), vehicle: other
  T/C: 89 % of control
dose: 25.0 mg/kg/injection, schedule: Q04DX003 (ip), vehicle: Klucel (hydroxypropylcellulose) (HPC)
  T/C: 95 % of control

## Nc1nc(SN=Nc2ccc([As](=O)(O)O)cc2)c2[nH]cnc2n1
dose: 0.5 mg/kg/injection, schedule: Q01DX Z (ip), vehicle: other
  T/C: 110 % of control
dose: 0.7 mg/kg/injection, schedule: Q01DX Z (ip), vehicle: other
  T/C: 114 % of control
dose: 1.25 mg/kg/injection, schedule: Q01DX015 (ip), vehicle: carboxymethylcellulose (CMC)
  T/C: 106 % of control
dose: 1.3 mg/kg/injection, schedule: Q01DX Z (ip), vehicle: other
  T/C: 107 % of control
dose: 2.5 mg/kg/injection, schedule: Q01DX015 (ip), vehicle: carboxymethylcellulose (CMC)
  T/C: 115 % of control
dose: 10.0 mg/kg/injection, schedule: Q01DX015 (ip), vehicle: carboxymethylcellulose (CMC)
  T/C: 159 % of control
dose: 11.0 mg/kg/injection, schedule: Q01DX Z (ip), vehicle: other
  T/C: 151 % of control and 154 % of control
dose: 25.0 mg/kg/injection, schedule: Q## X001 (ip), vehicle: carboxymethylcellulose (CMC)
  T/C: 113 % of control
dose: 50.0 mg/kg/injection, schedule: Q## X001 (ip), vehicle: carboxymethylcellulose (CMC)
  T/C: 123 % of control
dose: 56.0 mg/kg/injection, schedule: Q01DX Z (ip), vehicle: other
  T/C: 106 % of control

## CCOC(=O)CCSCCC(=O)OCC
[1]
  T/C: 109 % of control
[2]
  T/C: 101 % of control
[3]
  T/C: 101 % of control

## OC(c1cc2c3c(c1)CCCN3CCC2)(C(F)(F)F)C(F)(F)F
dose: 100.0 mg/kg/injection, schedule: Q04DX003 (ip), vehicle: saline with Tween-80
  T/C: 92 % of control
dose: 200.0 mg/kg/injection, schedule: Q04DX003 (ip), vehicle: saline with Tween-80
  T/C: 96 % of control

## c1cnc2ccc3c(c2c1)COCO3
[7]
  T/C: 93 % of control

## CCOC(=O)C1C2OC(=O)C(C(=O)C2CN(CCCl)CCCl)C1c1ccc(OC(C)=O)cc1 (centres undefined)
dose: 50.0 mg/kg/injection, schedule: Q04DX003 (ip), vehicle: Klucel (hydroxypropylcellulose) (HPC)
  T/C: 93 % of control
[10]
  T/C: 101 % of control
[11]
  T/C: 103 % of control
dose: 400.0 mg/kg/injection, schedule: Q04DX003 (ip), vehicle: Klucel (hydroxypropylcellulose) (HPC)
  T/C: 97 % of control

Reference: PubChem BioAssay AID248 (DTP/NCI, 2004)
